We go through 31 compounds from the Deep4Chem optical property database.

The structures appear in SMILES notation. “And” between values parts separate entries of the source, which are not always exact repeats. Identical values can stand only once.

This series can be described thus: photoluminescence quantum yield (fraction); solvent given as SMILES.
Setting [1] is: in O=P(c1ccccc1)(c1ccccc1)c1ccccc1Oc1ccccc1P(=O)(c1ccccc1)c1ccccc1.

Regarding `COc1ccc(-c2cnc(/C=C/c3ccc(C#N)cc3)o2)cc1OC`, for the setting “in ClCCl”, the photoluminescence quantum yield was found to be 0.38.

`N#Cc1c(-c2ccc(N(c3ccccc3)c3ccccc3)cc2)c(C#N)c(-c2ccc(N(c3ccccc3)c3ccccc3)cc2)c(C#N)c1-c1ccc(N(c2ccccc2)c2ccccc2)cc1`: the photoluminescence quantum yield under setting [1] came to 1.

`CCCCCCCCCCCCCCCCCCOc1ccc([B-]23NC(c4ccccc4)=Nc4cccc([n+]42)N=C(c2ccccc2)N3)cc1`: the photoluminescence quantum yield (in ClCCl) is 0.14.

As to `CC[n+]1nc2cc3c4c(c2c2cc(C)ccc21)CCCN4CCC3`, under “in O”, the photoluminescence quantum yield came out at 0.27.

Consider `Cc1cc(C)c(-c2c3ccccc3c3ccc4cc5c(-c6c(C)cc(C)cc6C)c6ccccc6c6ccc7cc2c3c4c7c56)c(C)c1`, for which the photoluminescence quantum yield (in ClCCl) came out at 0.17.

`CN(C)c1ccc(C(=O)Nc2ccc(F)cc2)cc1` showed a photoluminescence quantum yield (in C1CCCCC1) of 0.0011, a photoluminescence quantum yield (in C1CCOC1) of 0.0053, a photoluminescence quantum yield (in CC#N) of 0.0104 and a photoluminescence quantum yield (in CCOCC) of 0.0034.

The compound `CC(C)(C)c1cc(-c2cc3c(cc(-c4cc(C(C)(C)C)cc(C(C)(C)C)c4)n3-c3ccc(C(=C(c4ccccc4)c4ccccc4)c4ccccc4)cc3)n2-c2ccc(C(=C(c3ccccc3)c3ccccc3)c3ccccc3)cc2)cc(C(C)(C)C)c1` had a photoluminescence quantum yield (in ClCCl) of 0.0013.

On to `CCCCCCCCc1ccc(-c2c3cc(-c4cc(CCCCCCCC)c(-c5ccc(-c6sc(/C=C7\SC(N8CCCCC8)=NC7=O)cc6CCCCCCCC)s5)s4)sc3c(-c3ccc(CCCCCCCC)s3)c3cc(-c4cc(CCCCCCCC)c(-c5ccc(-c6sc(/C=C7\SC(N8CCCCC8)=NC7=O)cc6CCCCCCCC)s5)s4)sc23)s1`, for which the photoluminescence quantum yield runs as follows: (in C1CCOC1) 0.214; (in Cc1ccccc1) 0.211; (in ClC(Cl)Cl) 0.128; (in ClCCl) 0.144; (in Clc1ccccc1) 0.186.

Take `CCOC(=O)c1c2c3c(ccc(OC)c3c3cc4c(cc13)[Si](C)(C)O[Si]4(C)C)N(C)C2=O`: the photoluminescence quantum yield (in CC#N) came to 0.46.

Under “in C1CCCCC1”, `Cc1cccc(C)c1` gave a photoluminescence quantum yield of 0.25.

In turn, `N#Cc1cc(/C=C/c2ccc(N(c3ccccc3)c3ccccc3)cc2)ccc1/C=C/c1ccc(/C=C/c2ccc(N(c3ccccc3)c3ccccc3)cc2)cc1C#N` returned a photoluminescence quantum yield (in ClCCl) of 0.41.

As for `CN(C)c1ccc(/C=C/c2ccccn2)cc1`, the photoluminescence quantum yield (in C1CCCCC1) is 0.017; the photoluminescence quantum yield (in C1CCOC1) turned out to be 0.042; the photoluminescence quantum yield (in C1COCCO1) is 0.031; the photoluminescence quantum yield (in CC#N) stood at 0.048; the photoluminescence quantum yield (in CC(C)O) came to 0.024; the photoluminescence quantum yield (in CCCCCC) turned out to be 0.016. This compound also had a photoluminescence quantum yield (in CCCCCCC) of 0.017; a photoluminescence quantum yield (in CCCCO) of 0.026; a photoluminescence quantum yield (in CCO) of 0.032; a photoluminescence quantum yield (in CCOC(C)=O) of 0.03; a photoluminescence quantum yield (in CCOCC) of 0.022; a photoluminescence quantum yield (in CN(C)C=O) of 0.051. Further, the photoluminescence quantum yield was found to be 0.019 (in CO), 0.054 (in CS(C)=O) and 0.015 (in O).

Take `Nc1ccc2c(c1)C(=O)NC2=O`: the photoluminescence quantum yield (in C1CCOC1) was 0.7 and 1; the photoluminescence quantum yield (in C1COCCO1) is 0.73; the photoluminescence quantum yield (in CC#N) is 0.63; the photoluminescence quantum yield (in CC(C)=O) was determined as 0.68; the photoluminescence quantum yield (in CCO) was determined as 0.21; the photoluminescence quantum yield (in CN(C)C=O) was determined as 0.91. This compound registered a photoluminescence quantum yield (in ClCCl) of 0.76.

`COC(=O)[C@H](Cc1ccccc1)Nc1c(C(C)=O)c(=O)oc2cc(N(C)C)ccc12` displayed a photoluminescence quantum yield (in ClCCl) of 0.0043.

As for `C=C(C)C(CN1C(=O)c2cccc3cccc(c23)C1=O)OO` (stereo not given), for the setting “in CCO”, the photoluminescence quantum yield is 0.002.

As for `CCCCCCC1(CCCCCC)c2cc(-c3nc(-c4ccc5c(c4)C(CCCCCC)(CCCCCC)c4cc(N6c7ccccc7Sc7ccccc76)ccc4-5)nc(-c4ccc5c(c4)C(CCCCCC)(CCCCCC)c4cc(N6c7ccccc7Sc7ccccc76)ccc4-5)n3)ccc2-c2ccc(N3c4ccccc4Sc4ccccc43)cc21`, the photoluminescence quantum yield by setting is: (in C1CCOC1) 0.01; (in CCCCCC) 0.04; (in Cc1ccccc1) 0.02; (in ClCCl) 0.003.

For the setting “in CC#N”, `Cc1c2ccc3c(C)[n+](C)ccc3c2cc[n+]1C` registered a photoluminescence quantum yield of 0.38.

In the case of `c1ccc(-c2nn(-c3ccccc3)c3nc4ccccc4cc23)cc1`, the photoluminescence quantum yield is, setting by setting: (in C1CCCCC1) 0.86; (in C1CCOC1) 0.9; (in CC#N) 0.73; (in CC(C)=O) 0.85; (in CCCCCl) 0.91; (in CCCCOCCCC) 0.88. The photoluminescence quantum yield (in CN(C)C=O) was 0.78.

In turn, `CN(C)c1ccc(C2=C3C=C(c4ccc(C=C(C#N)C#N)cc4)S[C@]34c3ccccc3[C@H]2c2ccccc24)cc1` registered a photoluminescence quantum yield (in ClCCl) of 0.01.

`Cc1c2c(c(C)c3ccccc13)C1=CC3Nc4ccccc4NC3C=C12` (stereo not given) had a photoluminescence quantum yield (in ClC(Cl)Cl) of 0.02.

In the case of `CC1=[N+]2C(=C(c3ccc(N(c4ccccc4)c4ccccc4)cc3)c3ccc(C)n3[B-]2(F)F)C=C1c1cc2n(c1)[B-](F)(F)[N+]1=CC=CC1=C2c1c(C)cc(C)cc1C`, the photoluminescence quantum yield is, setting by setting: (in C1CCCCC1) 0.37; (in CCOC(C)=O) 0.1.

Regarding `c1ccc(-c2nc(-c3ccccc3)nc(-c3ccc(-n4c5ccccc5c5cc6c(cc54)C4c5ccccc5C6c5ccccc54)cc3)n2)cc1`, the photoluminescence quantum yield by setting is: (in Cc1ccccc1) 0.77; under setting [1], 0.4.

In turn, `CC(C)[Si](C#Cc1c2nc3c(nc2c(C#C[Si](C(C)C)(C(C)C)C(C)C)c2nc4c(nc12)C1c2ccccc2C4c2ccccc21)C1c2ccccc2C3c2ccccc21)(C(C)C)C(C)C` returned a photoluminescence quantum yield (in CCCCCC) of 0.33.

`CC(C)(C)OC(=O)/C=C/C1=CC2=C(c3ccccc3)c3cccn3[B-](F)(F)[N+]2=C1`: the photoluminescence quantum yield (in ClCCl) stood at 0.1.

The compound `CCC12C(=C3C(=C4c5ccc(-c6ccccc6)cc5S(=O)(=O)C41CC)C(F)(F)C(F)(F)C3(F)F)c1ccc(-c3ccccc3)cc1S2(=O)=O` (stereo not given) displayed a photoluminescence quantum yield (in C1COCCO1) of 0.87.

Under “in Cc1ccccc1”, `Cc1cc(C)c(B(c2ccc(N(c3ccccc3)c3ccccc3)cc2)c2c(C)cc(C)cc2C)c(C)c1` showed a photoluminescence quantum yield of 0.91.

With `N#Cc1cc(-n2c3ccccc3c3ccccc32)c(C#N)cc1-n1c2ccccc2c2ccccc21`, the photoluminescence quantum yield is, setting by setting: (in c1cc(-c2cccc(-n3c4ccccc4c4ccccc43)c2)cc(-n2c3ccccc3c3ccccc32)c1) 0.87; (in c1ccc2c(c1)c1ccccc1n2P1(n2c3ccccc3c3ccccc32)=NP(n2c3ccccc3c3ccccc32)(n2c3ccccc3c3ccccc32)=NP(n2c3ccccc3c3ccccc32)(n2c3ccccc3c3ccccc32)=N1) 0.85.

In turn, `C(=C\c1ncnc2ccccc12)/c1ccc(N(c2ccccc2)c2ccccc2)cc1` gave a photoluminescence quantum yield (in ClCCl) of 0.25.

For the compound `O=P1(c2ccccc2)C2=C(c3ccccc31)[Si](c1ccccc1)(c1ccccc1)c1cc(N(c3ccccc3)c3ccccc3)ccc12` (stereo not given), the photoluminescence quantum yield is, setting by setting: (in CC#N) 0.52; (in CO) 0.17; (in Cc1ccccc1) 0.86.

Take `Cn1ccc(-c2nc3ccccc3nc2/C=C/N2CCCC2)c1`: the photoluminescence quantum yield worked out at 0.184 (in C1CCCCC1); 0.495 (in C1CCOC1); 0.33 (in CC#N); 0.414 (in CC(C)=O); 0.022 (in CCO); 0.006 (in CO). For the same compound, the photoluminescence quantum yield reads like this: (in CS(C)=O) 0.325; (in Cc1ccccc1) 0.469; (in ClCCl) 0.611.

For `CCCCC(CC)Cn1c2cc(C#N)ccc2c2ccc(C#Cc3ccc4ccc5cccc6ccc3c4c56)cc21` (stereo not given), for the setting “in ClCCl”, the photoluminescence quantum yield stood at 0.59.
